# Source: patent publication US10174067B2, “Type of cytidine derivative and application thereof” (priority 2014, dated 2019)
# Marks after values point to notes of the source that are not given here.
# Columns and labels:
# ICR mice = experiment: in vivo; conditions: female ICR mice; single-dose ip
# Method: This experiment was to investigate the toxic effects of single-dose intraperitoneal administration on ICR mice and determine the maximum tolerated dose (MTD) of each subject. Maximum tolerated dose (MTD) refers to the dose that may not cause an animal to die, may not cause the animal to suffer weight loss exceeding 10% (compared with Day 0), or may not produce significant side effects.
# The corresponding amount of test substance was taken in a 5 mL glass tube and dissolved in ethanol with a 5 mm magnetic stirrer for stirring. After dissolving completely, Cremophor EL was added with continuous stirring. The marked amount of saline was added and mixed evenly before use. The volume ratio of ethanol, Cremophor EL, and physiological saline was 5:5:90.
# Varieties and lines: ICR mice; level: SPF; sex: female.
# Method of administration: ip. The dose was reduced in case of animal death, till an animal survived; the dose was increased in case of no animal death; the test was ended when the animals survived normally at the given high dose. Finally, the MTD of the mice on the test substances was determined according to the test results. The animals were observed continuously for 7 days after acute administration.
# During the experiment, all animals were under detailed and continuous clinical observation for […], twice a day (10:00 am, 16:00 pm) after administration. The observation included but not limited to: skin, hair, ear, nose, mouth, chest, abdomen, external genitalia, limbs and feet, respiratory and circulatory system, autonomic effects (such as salivation), nervous system (such as tremor, convulsions, stress response and abnormal behavior).
# The body of animals was weighed before administration, and then weighed and recorded at the same time each day.
# The observation results, animal body weight, and animal survival after one week of administration were recorded in detail every day.
# [1] = test system: HCT-116 colon cancer xenografts; experiment: Tumor growth inhibition of HCT-116 colon cancer xenografts in tumor-bearing nude mice (tumor volume, TGI %, RTV, T/C %); assay type: in vivo, Balb/c Nude mice; conditions: G10-G16 groups, single IP 400 mg/kg
# In short: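 Nude mice inoculated with HCT-116 cells (about 3×10^7 cells/mL in serum-free medium). Tumor diameter measured three times weekly and volume computed as V=3/4π(D/2)^3. Activity expressed as TGI (%) and T/C (%) from relative tumor volume Vt/V0, with V0 taken at grouping and dosing start; P<0.05 significant.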
# [2] = In short: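 Female SPF Balb/c nude mice bearing subcutaneous HCT-116 xenografts (3×10^6 cells, right hind limb), grouped at 60–150 mm^3, 6 per group; vehicle ethanol/Cremophor EL/saline 5:5:90. Body weight thrice weekly; tumours excised and weighed at sacrifice; Mean±SEM, unpaired t-test, P<0.05.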
# [3] = Day 1, G10-G16 groups, single IP 400 mg/kg, Mean±SEM
# [4] = Day 2, G10-G16 groups, single IP 400 mg/kg, Mean±SEM
# [5] = Day 4, G10-G16 groups, single IP 400 mg/kg, Mean±SEM
# [6] = Day 7, G10-G16 groups, single IP 400 mg/kg, Mean±SEM
# [7] = Day 9, G10-G16 groups, single IP 400 mg/kg, Mean±SEM
# [8] = Day 11, G10-G16 groups, single IP 400 mg/kg, Mean±SEM
# [9] = Day 14, G10-G16 groups, single IP 400 mg/kg, Mean±SEM
# [10] = Day 16, G10-G16 groups, single IP 400 mg/kg, Mean±SEM
# [11] = Day 18, G10-G16 groups, single IP 400 mg/kg, Mean±SEM
# [12] = Day 21, G10-G16 groups, single IP 400 mg/kg, Mean±SEM
# [13] = Day 23, G10-G16 groups, single IP 400 mg/kg, Mean±SEM
# [14] = Day 25, G10-G16 groups, single IP 400 mg/kg, Mean±SEM
# [15] = Day 28, G10-G16 groups, single IP 400 mg/kg, Mean±SEM
# [16] = Day 30, G10-G16 groups, single IP 400 mg/kg, Mean±SEM
compound,measurement,setting,value
CCCCOC(=O)Nc1nc(=O)n(C2OC(COC(=O)COc3nc(Cl)c(Cl)cc3Cl)C(O)C2(F)F)cc1-c1cn(Cc2ccccc2)nn1 (centres unmarked) [Compound G15],"dose that could be tolerated (maximum tolerated dose, MTD)",ICR mice,400 mg/kg
same,Day 0 (RTV),[1]; Day 0,1.00
same,"Tumor volume, Day 0","[1]; Day 0, Mean±SEM",80.27 ± 13.25 mm^3
same,Day 1 (TGI %),[1]; Day 1,35.29%
same,Day 1 (RTV),"[1]; Day 1, Mean±SEM",1.44 ± 0.12
same,"Tumor volume, Day 1","[1]; Day 1, Mean±SEM",116.82 ± 21* mm^3
same,Day 2 (TGI %),[1]; Day 2,44.25%
same,Day 2 (RTV),"[1]; Day 2, Mean±SEM",1.50 ± 0.15
same,"Tumor volume, Day 2","[1]; Day 2, Mean±SEM",123.70 ± 25.72* mm^3
same,Day 4 (TGI %),[1]; Day 4,67.87%
same,Day 4 (RTV),"[1]; Day 4, Mean±SEM",1.11 ± 0.17
same,"Tumor volume, Day 4","[1]; Day 4, Mean±SEM",95.41 ± 22.57** mm^3
same,Day 7 (TGI %),[1]; Day 7,86.92%
same,Day 7 (RTV),"[1]; Day 7, Mean±SEM",0.88 ± 0.12
same,"Tumor volume, Day 7","[1]; Day 7, Mean±SEM",56.58 ± 8.87** mm^3
same,Day 9 (TGI %),[1]; Day 9,91.92%
same,Day 9 (RTV),"[1]; Day 9, Mean±SEM",0.77 ± 0.23
same,"Tumor volume, Day 9","[1]; Day 9, Mean±SEM",47.71 ± 0.00** mm^3
same,Day 11 (TGI %),[1]; Day 11,92.19%
same,Day 11 (RTV),"[1]; Day 11, Mean±SEM",1.19 ± 0.19
same,"Tumor volume, Day 11","[1]; Day 11, Mean±SEM",76.28 ± 10.83** mm^3
same,Day 14 (TGI %),[1]; Day 14,86.10%
same,Day 14 (RTV),"[1]; Day 14, Mean±SEM",3.15 ± 0.61
same,"Tumor volume, Day 14","[1]; Day 14, Mean±SEM",200.24 ± 20.65** mm^3
same,Day 16 (TGI %),[1]; Day 16,77.07%
same,Day 16 (RTV),"[1]; Day 16, Mean±SEM",6.58 ± 1.42
same,"Tumor volume, Day 16","[1]; Day 16, Mean±SEM",415.31 ± 33.61** mm^3
same,Day 18 (TGI %),[1]; Day 18,71.73%
same,Day 18 (RTV),"[1]; Day 18, Mean±SEM",8.97 ± 2.01
same,"Tumor volume, Day 18","[1]; Day 18, Mean±SEM",564.86 ± 41.27** mm^3
same,Day 21 (TGI %),[1]; Day 21,60.58%
same,Day 21 (RTV),"[1]; Day 21, Mean±SEM",15.35 ± 3.61
same,"Tumor volume, Day 21","[1]; Day 21, Mean±SEM",963.72 ± 58.94 mm^3
same,Day 23 (TGI %),[1]; Day 23,59.19%
same,Day 23 (RTV),"[1]; Day 23, Mean±SEM",15.35 ± 3.61
same,"Tumor volume, Day 23","[1]; Day 23, Mean±SEM",963.72 ± 58.94 mm^3
same,Day 25 (TGI %),[1]; Day 25,57.93%
same,Day 25 (RTV),"[1]; Day 25, Mean±SEM",17.32 ± 4.11
same,"Tumor volume, Day 25","[1]; Day 25, Mean±SEM",1086.50 ± 63.85 mm^3
same,Day 28 (TGI %),[1]; Day 28,49.34%
same,Day 28 (RTV),"[1]; Day 28, Mean±SEM",21.75 ± 5.25
same,"Tumor volume, Day 28","[1]; Day 28, Mean±SEM",1362.50 ± 74.25 mm^3
same,Day 30 (TGI %),[1]; Day 30,37.03%
same,Day 30 (RTV),"[1]; Day 30, Mean±SEM",28.66 ± 8.38
same,"Tumor volume, Day 30","[1]; Day 30, Mean±SEM",1767.15 ± 0.00 mm^3
same,"Weight change rate, Day 0","[2]; Day 0, G10-G16 groups, single IP 400 mg/kg",0.00%
same,"Weight of mice, Day 0","[2]; Day 0, G10-G16 groups, single IP 400 mg/kg, Mean±SEM",20.15 ± 0.29 g
same,"Weight change rate, Day 1",[2]; [3],−1.20 ± 1.02%
same,"Weight of mice, Day 1",[2]; [3],19.92 ± 0.44 g
same,"Weight change rate, Day 2",[2]; [4],−11.24 ± 1.52 %
same,"Weight of mice, Day 2",[2]; [4],17.9 ± 0.52 g
same,"Weight change rate, Day 4",[2]; [5],−18.30 ± 3.09 %
same,"Weight of mice, Day 4",[2]; [5],16.48 ± 0.77 g
same,"Weight change rate, Day 7",[2]; [6],−1.96 ± 0.54%
same,"Weight of mice, Day 7",[2]; [6],20.10 ± 0.60 g
same,"Weight change rate, Day 9",[2]; [7],2.49 ± 2.01%
same,"Weight of mice, Day 9",[2]; [7],21.00 ± 0.10 g
same,"Weight change rate, Day 11",[2]; [8],4.46 ± 3.04%
same,"Weight of mice, Day 11",[2]; [8],21.40 ± 0.10 g
same,"Weight change rate, Day 14",[2]; [9],7.83 ± 1.17 %
same,"Weight of mice, Day 14",[2]; [9],22.1 ± 0.30 g
same,"Weight change rate, Day 16",[2]; [10],11.00 ± 1.00 %
same,"Weight of mice, Day 16",[2]; [10],22.75 ± 0.35 g
same,"Weight change rate, Day 18",[2]; [11],13.18 ± 0.32 %
same,"Weight of mice, Day 18",[2]; [11],23.20 ± 0.50 g
same,"Weight change rate, Day 21",[2]; [12],9.29 ± 0.71 %
same,"Weight of mice, Day 21",[2]; [12],22.40 ± 0.40 g
same,Day 22 Mortality,"[2]; Day 22, single IP dose (mg/kg)",67%
same,"Weight change rate, Day 23",[2]; [13],8.06 ± 0.44 %
same,"Weight of mice, Day 23",[2]; [13],22.15 ± 0.45 g
same,"Weight change rate, Day 25",[2]; [14],9.26 ± 0.26%
same,"Weight of mice, Day 25",[2]; [14],22.4 ± 0.60 g
same,"Weight change rate, Day 28",[2]; [15],7.08 ± 0.42%
same,"Weight of mice, Day 28",[2]; [15],21.95 ± 0.45 g
same,"Weight change rate, Day 30",[2]; [16],9.20 ± 2.70%
same,"Weight of mice, Day 30",[2]; [16],22.40 ± 1.10 g
same,clinical symptoms,"[2]; after single IP dose, compared with model control group",no significant differences in clinical symptoms
